Test results from paper PMC2765639 (PLoS Neglected Tropical Diseases, 2009).
Read-outs that look alike come from different tables or passages of the source.

Legend:
L. major promastigotes [1] = assay: L. major promastigote drug susceptibility assay (alamar blue, 384-well); assay type: cell-based, Leishmania major; conditions: read-out: EC50 Ave ± SD, Lm
Description: Promastigotes were grown in vented T75 tissue culture flasks and maintained at 28°C. Promastigote cultures were initiated at 10^5 parasites per mL and subcultured every 3–4 days. L. major promastigote counts were performed in duplicate using a hemocytometer and particle counter (Beckman Coulter, Fullerton, CA). For HTS assays, L. major promastigote cultures were harvested during exponential growth phase (∼2.0–3.0×10^7 parasites/mL) and were not maintained past passage 20.
The final test compound concentration was 10 µM with a constant DMSO concentration of 1% in each assay well.
The L. major promastigote drug susceptibility assay was performed in a final volume of 25 µL using our previously described 384-well microtiter plate format,[39]. For automated HTS procedures, L. major promastigotes (5,000 parasites/22 µL) in complete growth medium were seeded into each well of the microtiter plates using a MAPC2 bulk dispenser (Titertek, Huntsville, AL). Test and control compounds (3 µL) were added to individual wells using a Velocity 11 V-prep (Menlo Park, CA) liquid handling system, equipped with a 384-well dispensing head, followed by centrifugation at 50 g for 1 min. […] Assay plates were allowed to incubate for 44 h at 28°C in the presence of 5% CO2. Five µL of alamar blue reagent were added to each assay plate well and incubated for 4 h at 28°C with 5% CO2. Data were captured on a Molecular Devices SpectraMax M5 (excitation560; emission590). Individual assay plate Z-factors were derived from the vehicle and positive controls, and data from plates were used only if Z-factors were >0.5 [50].
The assays were performed in duplicate with a final 10-point concentration range spanning 0.01–5.00 µM.

[2] = tested on: L. major axenic amastigote-like population; assay: L. major axenic amastigote-like alamar blue assay (pH 4.9); assay type: cell-based, Leishmania major; conditions: for EC50: Leishmania major, 144 h, pH 4.9, read-out: L. major axenic amastigote-like EC50 (AVE±SD) Confirmation Alamar Blue
A549 = assay: Mammalian cell line specificity assay (alamar blue); assay type: cell-based, human
Description: Mammalian cells were cultured and maintained according to ATCC specifications (ATCC, Manassas, VA). Cell line drug susceptibility assays were performed in final volumes of 25 µL using our previously described 384-well microtiter plate format,[39]. […] Test and control compounds were added to individual wells as described above. Vehicle and positive controls were 1% DMSO and 10% DMSO, respectively (final well concentrations). Assay plates were incubated for 44–46 h at 37°C in the presence of 5% CO2 and growth inhibitory effects were determined as described above. Five µL of alamar blue reagent was added to each well and incubated for 2–4 h. Data were captured as described above.

L. major promastigotes [3] = assay: Flow cytometer-based growth inhibition and cytotoxicity assay; conditions: Leishmania major, 48 h, read-out: L. major promastigote EC50 (AVE±SD) Confirmation Flow Cytometry
[4] = Homo sapiens, A549, Table S1, PMLSC library samples, read-out: EC50 Ave ± SD, A549
[5] = Table S1, PMLSC library samples, 10-point 0.01–5.00 µM
[6] = Table S1, PMLSC library samples, read-out: EC50 Ave ± SD, A549

| SMILES | EC50 (L. major promastigotes [1]; [5]) [nM] | EC50 (A549; [6]) [nM] | further results |
| --- | --- | --- | --- |
| Cc1[nH]c2c(Cl)cccc2c(=O)c1CN1CCCC1 [CID 728862] |  |  | EC50 (L. major promastigotes [1]; Leishmania major): 392 ± 50 nM; EC50 [2]: 4300 ± 800 nM; EC50 (A549; [4]): > 5000 nM; EC50 (L. major promastigotes [3]): 1770 ± 120 nM |
| CCN(CC)CCN(C)C1CCC(c2ccccc2)CC1 (stereo not shown) [CID 742546] |  |  | EC50 (L. major promastigotes [1]; Leishmania major): 827 ± 116 nM; EC50 [2]: > 50000 nM; EC50 (A549; [4]): > 5000 nM; EC50 (L. major promastigotes [3]): 430 ± 300 nM |
| Cc1cc(C)nc(/N=C2\SNSC2Cl)c1 (stereo not shown) [CID 757789] |  |  | EC50 (L. major promastigotes [1]; Leishmania major): 353 ± 25 nM; EC50 [2]: 3200 ± 800 nM; EC50 (A549; [4]): > 5000 nM; EC50 (L. major promastigotes [3]): 1940 ± 150 nM |
| COc1cccc2c(=O)c(C/C=C(/C)Cl)c(C)[nH]c12 [CID 760847] |  |  | EC50 (L. major promastigotes [1]; Leishmania major): 108 ± 23 nM; EC50 [2]: 210 ± 90 nM; growth inhibitory activity in axenic amastigote-like assay ([2]; pH 4.9): comparable to amphotericin B; EC50 (A549; [4]): > 5000 nM; EC50 (L. major promastigotes [3]): 200 ± 50 nM |
| Cc1ccc(S(=O)(=O)c2ccc(Oc3cccc(C)c3)cc2)cc1 [CID 786799] |  |  | EC50 (L. major promastigotes [1]; Leishmania major): 180 ± 35 nM; EC50 [2]: 3600 ± 130 nM; EC50 (A549; [4]): > 5000 nM; EC50 (L. major promastigotes [3]): 2220 ± 110 nM |
| Cc1ccc(OCCCCn2ccnc2)c(Cl)c1 [CID 2851545] |  |  | EC50 (L. major promastigotes [1]; Leishmania major): 133 ± 35 nM; EC50 [2]: 11700 ± 500 nM; EC50 (A549; [4]): > 5000 nM; EC50 (L. major promastigotes [3]): 340 ± 480 nM |
| O=C1C2ON(c3ccc(Br)cc3)C(c3ccccn3)C2C(=O)N1C1CCCCC1 (stereo not shown) [CID 2946668] |  |  | EC50 (L. major promastigotes [1]; Leishmania major): 515 ± 66 nM; EC50 [2]: 1200 ± 400 nM; EC50 (A549; [4]): > 5000 nM; EC50 (L. major promastigotes [3]): 350 ± 60 nM |
| Cc1ccc2nc(Cl)c3nnnn3c2c1 [CID 4202676] | 767 ± 76 | > 5000 |  |
| COC(=O)c1cccc(Cn2c(Cl)c(C=NNc3ccccc3C)sc2=O)c1 [CID 4271960] | 545 ± 193 | > 5000 |  |
| Cc1nc([N+](=O)[O-])nn1C12CC3CC(CC(Cl)(C3)C1)C2 [CID 5032706] | 856 ± 33 | > 5000 |  |
| CC1=C(C(=O)Nc2cc(-c3cccc(F)c3)[nH]n2)C2(CCCCC2)OC1=O [CID 5309827] | 382 ± 56 | > 5000 |  |
| CCOC(=O)N=Nc1c2ccccc2c2nc3no[nH]c3nc12 [CID 5833488] | 788 ± 114 | 151 ± 10 |  |
| COC(=O)c1ccc(-c2ccc(CNCC(O)c3ccccc3)o2)cc1 (stereo not shown) [CID 6602747] | 104 ± 27 | > 5000 |  |
| CC(C)CCN(C)C1CCN(S(=O)(=O)c2cccc(C(F)(F)F)c2)CC1 [CID 6602880] | 10 ± 3 | > 5000 |  |
| N=c1c2c(n(Cc3ccccc3)c3c1CCC3)CCC2 [CID 6603247] | 83 ± 5 | > 5000 |  |
| O=C1C2CCN(CC2)C1Cc1ccc(OCCOc2ccccc2)cc1 (stereo not shown) [CID 6603672] | 274 ± 51 | > 5000 |  |
| C[C@H]1C[C@@H](C)C(=O)[C@@H]([C@H](O)CC2CC(=O)NC(=O)C2)C1 [CID 6604199] | 5 ± 0.1 | 1900 ± 1400 |  |
| c1ccc2c(c1)OC(CCCN1CCCCC1)c1ccccc1S2 (stereo not shown) [CID 9549148] | 137 ± 40 | > 5000 |  |
| COC(=O)c1ccc2c(c1)C(C)(C)C(/C=C/c1ccc(OC)c(OC)c1OC)=[N+]2C [CID 9550329] | 50 ± 0.1 | > 5000 |  |
| CCCCCCCCCCCCCCCC[n+]1ccc(/C=N/O)cc1 [CID 11293258] | 10 ± 2 | 1300 ± 76 |  |
| O=C(COc1ccccc1F)NC1CCN(Cc2ccccc2)CC1 [CID 11834429] | 142 ± 32 | > 5000 |  |
| Cc1ccccc1NC1=C/C(=N\S(=O)(=O)c2cccs2)c2ccccc2C1=O [CID 11834470] | 211 ± 47 | > 5000 |  |

| SMILES | EC50 (L. major promastigotes [1]; [5]) [nM] | EC50 (A549; [6]) [nM] | further results |
| --- | --- | --- | --- |
| COCCCN1CCN(c2nnc3n2-c2sc(Br)cc2C(c2ccccc2Cl)=NC3)CC1 [CID 11948854] | 607 ± 166 | > 5000 |  |
| CCCCCCCCC[n+]1cccc2c3ccccc3ccc21 [CID 11957314] | 205 ± 21 | 1140 ± 53 |  |
| CC[n+]1c(/C=C/N(C)c2ccccc2)sc2ccc(Cl)cc21.[O-][Cl+3]([O-])([O-])[O-] [CID 11958710] | 174 ± 32 | > 5000 |  |
| CC(=O)O[C@@H]1C[C@H]2C(C)(C)C(=O)C=C[C@]2(C)[C@H]2CC[C@@]3(C)[C@H](c4ccoc4)OC(=O)[C@H]4O[C@]43[C@@]21C [CID 12004512] | 746 ± 211 | > 5000 |  |
| CCC(/C=C1\Sc2ccc(OC)cc2N1CCO)=C\c1sc2ccc(OC)cc2[n+]1CCO [CID 12004742] | 491 ± 92 | > 5000 |  |
| CCCCCCCCCCCCCCCC[n+]1cccc(C(=O)N(CC)CC)c1 [CID 12005597] | 629 ± 107 | 4070 ± 721 |  |
| Cc1ccc(-c2cc3cccc[n+]3cc2-c2ccc(C)cc2)cc1 [CID 13481921] | 229 ± 34 | > 5000 |  |
| Nc1nn(-c2ccccc2)c(N)c1N=Nc1ccc2c(c1)OCO2 [CID 15944965] | 849 ± 99 | > 5000 |  |
| O=C(c1ccccc1)c1c2c(cc3sc4ccccc4[n+]13)-c1cccc3cccc-2c13 [CID 15944971] | 505 ± 54 | > 5000 |  |
| CCOC(=O)c1c(-c2ccc(F)cc2)csc1NC(=O)CCN1CCOCC1 [CID 15945170] | 178 ± 36 | > 5000 |  |
| Cc1ccc(-c2cc(-c3ccc(C)cc3)[n+](C)o2)cc1.[O-][Cl+3]([O-])([O-])[O-] [CID 15945780] | 184 ± 12 | > 5000 |  |
| Cn1cc(CN2CCC(CO)CC2)c(-c2ccc(Oc3ccccc3)cc2)n1 [CID 16187569] | 165 ± 25 | > 5000 |  |
| CC(C)(C)c1ccc(C(=O)C2CCCN(C3CCC3)C2)cc1 (stereo not shown) [CID 16187595] |  |  | EC50 (L. major promastigotes [1]; Leishmania major): 14 ± 13 nM; EC50 [2]: 2300 ± 200 nM; EC50 (A549; Homo sapiens, A549, read-out: EC50 Ave ± SD, A549): > 5000 nM; EC50 (L. major promastigotes [3]): 40 ± 10 nM |
| O=C(c1ccc(-c2ccccc2)c(F)c1)C1CCCN(CCO)C1 (stereo not shown) [CID 16187738] | 511 ± 44 | > 5000 |  |
| CC12CCC(C(=O)N(CCCN3CCN(Cc4ccccc4)CC3)C1=O)C2(C)C (stereo not shown) [CID 16189740] | 571 ± 113 | > 5000 |  |
| CC(C)(C)c1ccc(-c2ncccc2O)cc1 [CID 16192568] | 301 ± 50 | > 5000 |  |
| NCC12CC3CC(C1)CC(c1ccc(Cl)cc1)(C3)C2 [CID 16192591] | 357 ± 56 | 3750 ± 623 |  |
| COc1ccc(/C=C/c2cc[n+](C(=O)Cc3ccccc3)cc2)cc1 [CID 16196001] | 50 ± 9 | > 5000 |  |
| C[n+]1c(-c2ccccc2)cc(CCCCc2cc(-c3ccccc3)[n+](C)c(-c3ccccc3)c2)cc1-c1ccccc1.[O-][Cl+3]([O-])([O-])O [CID 16196006] | 703 ± 44 | > 5000 |  |
| COc1ccc(-[n+]2c(C)cc(/C=C3\Sc4ccccc4N3C)cc2C)cc1 [CID 16196223] | 18 ± 2 | 2320 ± 205 |  |
| Cc1cc(/C=C2\Sc3ccccc3N2C)cc(C)[n+]1CC1CCCO1 (stereo not shown) [CID 16196319] | 15 ± 1 | > 5000 |  |
